In patent US7259136B2, “Compositions and methods for treating peripheral vascular disease” (Amylin Pharmaceuticals, Inc., priority 1999, dated 2007):
Where no end group is shown, it is not given here.

Columns and labels:
pancreas = conditions: cited from earlier work
[1] = test system: Cardiac Muscle Ischemia and Reperfusion; experiment: LAD coronary artery occlusion (25 min) and reperfusion (2 h) in anesthetized rats; assay type: in vivo, Wistar rats
Procedure: Wistar rats were anesthetized with thiopentone sodium. The left anterior descending (LAD) coronary artery was occluded. After 25 minutes of occlusion, reperfusion was allowed for 2 hours. This animal model has been described previously. Zacharowski, et al. […] Br. J. Pharmacol. 128, 945–952.
GLP-1 (1.5 microgram/kg/min) was infused into anesthetized rats (n=10), commencing 10 minutes prior to reperfusion and continuing throughout the 2-hour reperfusion. Controls were sham operated with no occlusion (n=7), LAD occlusion+reperfusion+administration of saline (n=12), and LAD occlusion and reperfusion with vehicle (10 mM sodium acetate, 5.05% D-mannitol, pH 4.5, 1.5 mL/kg/hour; n=10).
Following reperfusion, the coronary artery was reoccluded, and Evans Blue dye (4 ml, 2% w/v) was injected into the left ventricle of the heart via a right carotid artery cannula. Evans Blue stains the perfused myocardium, while the occluded vascular bed remains uncolored. Animals were euthanized by anesthetic overdose and the hearts were removed for examination. Hearts were sectioned and the right ventricular wall was removed. The area at risk (pink) was separated from the non-ischemic tissue (blue). The area at risk (pink) was then cut into smaller pieces and stained with p-nitroblue tetrazolium (NBT; 0.5 mg/ml) for 20 min. at 37° C. In the presence of intact dehydrogenase enzyme systems (viable myocardium), NBT forms a dark blue compound. Areas of necrosis lack the enzyme and remain unstained. Tissue was separated according to staining and weighed to determine infarct size as a percentage of the area at risk.

[2] = test system: Cardiac Muscle Ischemia and Reperfusion; experiment: Left circumflex coronary occlusion (10 min) and reperfusion in dogs; assay type: in vivo
Procedure: Two dogs were studied at baseline before, during, and for 6 hours after a 10-minute complete left circumflex coronary (LCx) occlusion. Each dog underwent occlusion/reperfusion in the presence and absence of GLP-1 infusion for […], beginning 1 minute prior to reperfusion.

GLP-1(9-36)amide: DPP IV inactivation product of GLP-1(7-36)amide, SEQ ID NO:6 (EGTFTSDVSSYLEGQAAKEFIAWLVKGR-NH2)
stimulation of production or release of insulin from the pancreas (pancreas): do not stimulate production or release of insulin

GLP-1(9-37): DPP IV inactivation product of GLP-1(7-37), SEQ ID NO:5 (EGTFTSDVSSYLEGQAAKEFIAWLVKGRG; mammalian)
stimulation of production or release of insulin from the pancreas (pancreas): do not stimulate production or release of insulin

glucagon-like peptide-1 [GLP-1]
infarct size as a percentage of the area at risk ([1]; GLP-1 1.5 microgram/kg/min infusion from 10 min prior to reperfusion throughout 2-hour reperfusion, n=10): 31+/−4 % of the area at risk | reduction in infarct size compared with the vehicle group ([1]; GLP-1 1.5 microgram/kg/min infusion, p<0.05): approximately 33% | hemodynamics ([1]; GLP-1 infusion): significantly improved hemodynamics | stunning period ([2]; dogs, GLP-1 during reperfusion after subcritical ischemia): significantly reduced the stunning period | recovery of ventricular wall regional dysfunction ([2]; two dogs, GLP-1 infusion for 24 hours beginning 1 minute prior to reperfusion, after 10 minutes of coronary artery occlusion): enhanced the recovery of ventricular wall regional dysfunction
